Data set [1] concerns the target T1, Dihydrofolate reductase (Pneumocystis carinii, UniProt P16184).
T1 sequence (P16184 whole entry): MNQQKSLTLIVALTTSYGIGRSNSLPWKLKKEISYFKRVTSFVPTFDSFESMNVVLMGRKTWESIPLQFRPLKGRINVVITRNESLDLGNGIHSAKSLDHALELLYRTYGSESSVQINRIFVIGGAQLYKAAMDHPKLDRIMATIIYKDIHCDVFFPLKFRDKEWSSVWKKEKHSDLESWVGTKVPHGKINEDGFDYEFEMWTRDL

Data set [2] can be described thus: Ratio of IC50 against rat liver DHFR and Pneumocystis carinii DHFR (IC50rl/IC50pc).
Data set [3] is described as follows: Ratio of the IC50 against rat liver DHFR and Toxoplasma gondii DHFR (IC50rl/IC50tg).
For data set [4], the target named is T2, Bifunctional dihydrofolate reductase-thymidylate synthase (Toxoplasma gondii, UniProt Q07422).
T2 sequence (Q07422 whole entry): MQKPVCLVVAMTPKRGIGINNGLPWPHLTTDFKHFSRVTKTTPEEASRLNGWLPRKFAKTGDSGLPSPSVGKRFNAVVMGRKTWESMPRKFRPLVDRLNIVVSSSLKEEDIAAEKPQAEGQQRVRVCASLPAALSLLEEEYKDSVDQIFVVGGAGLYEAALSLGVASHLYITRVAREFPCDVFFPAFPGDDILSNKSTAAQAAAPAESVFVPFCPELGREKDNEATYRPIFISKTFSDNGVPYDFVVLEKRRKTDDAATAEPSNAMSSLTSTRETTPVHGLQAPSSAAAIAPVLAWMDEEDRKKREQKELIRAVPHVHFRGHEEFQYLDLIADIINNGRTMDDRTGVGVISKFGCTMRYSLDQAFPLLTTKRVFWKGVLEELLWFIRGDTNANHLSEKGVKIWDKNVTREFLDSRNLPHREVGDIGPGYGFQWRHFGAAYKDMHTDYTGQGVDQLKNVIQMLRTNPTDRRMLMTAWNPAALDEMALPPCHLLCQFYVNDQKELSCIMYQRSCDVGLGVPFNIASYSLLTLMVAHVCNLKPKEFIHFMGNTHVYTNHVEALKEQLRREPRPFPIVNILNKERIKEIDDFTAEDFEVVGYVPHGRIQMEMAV

Data set [5] deals with T3, Dihydrofolate reductase (Rattus norvegicus, UniProt Q920D2).
T3 sequence (Q920D2 whole entry): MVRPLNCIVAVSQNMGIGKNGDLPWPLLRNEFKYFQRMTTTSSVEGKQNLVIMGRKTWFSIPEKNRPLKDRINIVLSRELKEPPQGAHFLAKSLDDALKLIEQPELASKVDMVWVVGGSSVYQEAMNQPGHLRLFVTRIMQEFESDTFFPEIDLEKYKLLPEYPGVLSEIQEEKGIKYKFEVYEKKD

The test system of a further data set is A253 cell line. Briefly: Growth inhibition of human squamous carcinoma cell lines following continuous (120 hours) exposure to MTX and compound A253 cell line. In kind it is functional, cell-based. The note with it: A253, 120 h.
Data set [6] can be described thus: Relative Vmax of compound was measured. In kind it is ADME.
Data set [7] deals with CCRF-CEM. Briefly: Compound was evaluated for the growth inhibition of R2, a CCRF-CEM subline resistant to MTX as a result of deffective uptake. In kind it is functional, cell-based. The note with it: Homo sapiens.
The subject of data set [8] is CCRF-CEM. Briefly: Compound was evaluated for the growth inhibition of R30dm, a CCRF-CEM subline resistant to intermittent MTX exposure solely as a result of decreased polyglutamylation. In kind it is functional, cell-based. The note with it: Homo sapiens.
The subject of data set [9] is CCRF-CEM. Kind of data set: Compound was evaluated for the growth inhibition of parental CCRF-CEM. In kind it is functional, cell-based. As to conditions: Homo sapiens.
Another data set deals with FaDu. Briefly: Growth inhibition of human squamous carcinoma cell lines following continuous (120 hours) exposure to MTX and compound FaDu cell line. In kind it is functional, cell-based.
Compound in data set [10]: Nc1nc(N)c2nc(CNc3ccc(C(=O)N[C@@H](CCC(=O)O)C(=O)O)cc3)cnc2n1
Kind of data set: Inhibitory activity of compound was measured for CCRF-CEM human leukemia cell Folyl-polyglutamate synthase.

Data set [11] deals with Folylpolyglutamate synthase, mitochondrial (Homo sapiens) (UniProt Q05932). Kind of data set: Inhibitory activity of compound was measured for CCRF-CEM human leukemia cell Folyl-polyglutamate synthase.

With `CCOc1ccc(OCC)c(NCc2c[nH]c3nc(N)nc(N)c23)c1`, the IC50 (commonly the point on the concentration scale where inhibition reaches its midpoint) on Dihydrofolate reductase [1] turned out to be 21000 nM.

Turning to `Nc1nc(N)c2c(CNc3ccccc3)c[nH]c2n1`, the Selectivity ratio in data set [2] was less than 1; in data set [3], more than 65.

In the case of `Nc1nc(N)c2c(CNc3cccc4ccccc34)c[nH]c2n1`, the Selectivity ratio in data set [2] worked out at 0.2; in data set [3] it was 53.9. The concentration for half-maximal inhibition (IC50) in [4] came to 1100 nM; at Dihydrofolate reductase [5] it was 59300 nM; against Dihydrofolate reductase [1], 307000 nM.

As to `Nc1nc(N)c2c(CNc3ccc(C(=O)NC(CCC(=O)O)C(=O)O)cc3)c[nH]c2n1` (stereo not given), the EC50 (usually the concentration giving half of the maximal effect) in the data set on A253 cell line amounted to 46 nM; with CCRF-CEM [7], 1650 nM; in the data set on CCRF-CEM [8], 36 nM; in the data set on CCRF-CEM [9] it was 12.8 nM; in the data set on FaDu, 22 nM. For the same molecule, in data set [6], the Vmax turned out to be 0.72. The figures for the 50% inhibitory concentration (IC50) (in data set [4]; at Dihydrofolate reductase [1]) were 210 nM and 38 nM, respectively.

`COc1cc(NCc2c[nH]c3nc(N)nc(N)c23)cc(OC)c1OC`: the Selectivity ratio was less than 2.4 in data set [2] and 7 in [3]. The IC50 in data set [4] is 8100 nM; at Dihydrofolate reductase [5], 56300 nM; at Dihydrofolate reductase [1], more than 23000 nM.

With `CN(Cc1cnc2nc(N)nc(N)c2n1)c1ccc(C(=O)N[C@@H](CCC(=O)O)C(=O)O)cc1` [METHOTREXATE], the EC50 was 17 nM in the data set with A253 cell line and 31 nM in the data set with FaDu.

Regarding `Nc1nc(N)c2nc(CNc3ccc(C(=O)N[C@@H](CCC(=O)O)C(=O)O)cc3)cnc2n1` [AMINOPTERIN], the Vmax in data set [6] stood at 1.

Take `COc1ccc(NCc2c[nH]c3nc(N)nc(N)c23)cc1`: the Selectivity ratio came out at 0.23 in data set [2] and 10.5 in data set [3]. The IC50 in [4] stood at 6000 nM; against Dihydrofolate reductase [5], 63000 nM; against Dihydrofolate reductase [1] it was 279000 nM.

For `COc1ccc(OC)c(NCc2c[nH]c3nc(N)nc(N)c23)c1`, the Selectivity ratio was 3.4 in data set [2] and 92 in data set [3]. Besides, the figures for the half-inhibitory concentration (IC50) (in [4]; against Dihydrofolate reductase [5]) were 1700 nM and 156000 nM, respectively.

B1: Folylpolyglutamate synthase, mitochondrial (Homo sapiens), Q05932 (protein)
chain: MSRARSHLRAALFLAAASARGITTQVAARRGLSAWPVPQEPSMEYQDAVRMLNTLQTNAGYLEQVKRQRGDPQTQLEAMELYLARSGLQVEDLDRLNIIHVTGTKGKGSTCAFTECILRSYGLKTGFFSSPHLVQVRERIRINGQPISPELFTKYFWRLYHRLEETKDGSCVSMPPYFRFLTLMAFHVFLQEKVDLAVVEVGIGGAYDCTNIIRKPVVCGVSSLGIDHTSLLGDTVEKIAWQKGGIFKQGVPAFTVLQPEGPLAVLRDRAQQISCPLYLCPMLEALEEGGPPLTLGLEGEHQRSNAALALQLAHCWLQRQDRHGAGEPKASRPGLLWQLPLAPVFQPTSHMRLGLRNTEWPGRTQVLRRGPLTWYLDGAHTASSAQACVRWFRQALQGRERPSGGPEVRVLLFNATGDRDPAALLKLLQPCQFDYAVFCPNLTEVSSTGNADQQNFTVTLDQVLLRCLEHQQHWNHLDEEQASPDLWSAPSPEPGGSASLLLAPHPPHTCSASSLVFSCISHALQWISQGRDPIFQPPSPPKGLLTHPVAHSGASILREAAAIHVLVTGSLHLVGGVLKLLEPALSQ
As for B1, the figures for the Km in [10] and in [11] were 4.3 µM and less than 1 µM, respectively.

Values taken from ChEMBL document CHEMBL1128397, “Novel 2,4-diamino-5-substituted-pyrrolo[2,3-d]pyrimidines as classical and nonclassical antifolate inhibitors of dihydrofolate reductases” (J Med Chem, 1995).
